Structures are written as SMILES.

This experiment deals with VEGF-stimulated HUVEC proliferation (Human Umbilical Vein Endothelial cells). The experiment is described as follows: HUVEC Proliferation Assay. In kind it is cell-based. The conditions noted are these: 72 h, CyQuant dye, read-out: inhibited VEGF-stimulated HUVEC proliferation at a level (IC50 values determined). The method, then: Human Umbilical Vein Endothelial cells are purchased from Clonetics, Inc., as cryopreserved cells harvested from a pool of donors. These cells, at passage 1, are thawed and expanded in EBM-2 complete medium, until passage 2 or 3. The cells are trypsinized, washed in DMEM+10% FBS+antibiotics, and spun at 1000 rpm for 10 min. Prior to centrifugation of the cells, a small amount is collected for a cell count. After centrifugation, the medium is discarded, and the cells are resuspended in the appropriate volume of DMEM+10% FBS+antibiotics to achieve a concentration of 3×10^5 cells/mL. Another cell count is performed to confirm the cell concentration. The cells are diluted to 3×10^4 cells/mL in DMEM+10% FBS+antibiotics, and 100 μL of cells are added to a 96-well plate. The cells are incubated at 37° C. for 22 h.
Prior to the completion of the incubation period, compound dilutions are prepared. Five-point, five-fold serial dilutions are prepared in DMSO, at concentrations 400-fold greater than the final concentrations desired. 2.5 μL of each compound dilution are diluted further in a total of 1 mL DMEM+10% FBS+antibiotics (400× dilution). Medium containing 0.25% DMSO is also prepared for the 0 μM compound sample. At the 22 h timepoint, the medium is removed from the cells, and 100 μL of each compound dilution is added. The cells are incubated at 37° C. for 2-3 h.
During the compound pre-incubation period, the growth factors are diluted to the appropriate concentrations. Solutions of DMEM+10% FBS+antibiotics, containing either VEGF or bFGF at the following concentrations: 50, 10, 2, 0.4, 0.08, and 0 ng/mL are prepared. For the compound-treated cells, solutions of VEGF at 550 ng/mL or bFGF at 220 ng/mL for 50 ng/mL or 20 ng/mL final concentrations, respectively, are prepared since 10 μL of each will be added to the cells (110 μL final volume). At the appropriate time after adding the compounds, the growth factors are added. VEGF is added to one set of plates, while bFGF is added to another set of plates. For the growth factor control curves, the media on wells B4-G6 of plates 1 and 2 are replaced with media containing VEGF or bFGF at the varying concentrations (50-0 ng/mL). The cells are incubated at 37° C. for an additional 72 h.
At the completion of the 72 h incubation period, the medium is removed, and the cells are washed twice with PBS. After the second wash with PBS, the plates are tapped gently to remove excess PBS, and the cells are placed at −70° C. for at least 30 min. The cells are thawed and analyzed using the CyQuant fluorescent dye (Molecular Probes C-7026), following the manufacturer's recommendations. The plates are read on a Victor/Wallac 1420 workstation at 485 nm/530 nm (excitation/emission). Raw data are collected and analyzed using a 4-parameter fit equation in XLFit. IC50 values are then determined.
Take `CC1(C)CNCc2cc(NC(=O)c3ccc(F)cc3NCc3ccc(F)cc3)ccc21` [Example 107, N-(4,4-Dimethyl-1,2,3,4-tetrahydro-isoquinolin-7-yl)-4-fluoro-6-(4-fluoro-benzylamino)-benzamide]: the IC50 was less than 1000 nM.
Consider `CC1(C)CNCc2cc(NC(=O)c3cc(F)c(F)cc3NCc3ccc(F)cc3)ccc21` [Example 108, N-(4,4-Dimethyl-1,2,3,4-tetrahydro-isoquinolin-7-yl)-3,4-difluoro-6-(4-fluoro-benzylamino)-benzamide], for which the IC50 was less than 1000 nM.
For `CC(Nc1ccccc1C(=O)Nc1ccc2c(c1)CN(C(=O)OC(C)(C)C)CC2(C)C)c1ccnc(N)n1` (stereo not drawn) [Example 126, tert-Butyl 7-{2-[1-(2-amino-pyrimidin-4-yl)-ethylamino]-benzoylamino}-4,4-dimethyl-3,4-dihydro-1H-isoquinoline-2-carboxylate], the IC50 was less than 1000 nM.
Consider `CNc1nccc([C@H](C)Nc2ccccc2C(=O)Nc2ccc3c(c2)CNCC3(C)C)n1` [Example 130, (S)—N-(4,4-Dimethyl-1,2,3,4-tetrahydro-isoquinolin-7-yl)-2-[1-(2-methylamino-pyrimidin-4-yl)-ethylamino]-benzamide], for which the IC50 is less than 1000 nM.
Next, `CC(Nc1ccccc1C(=O)Nc1ccc2c(c1)CNCC2(C)C)c1ccnc(N)n1` (stereo not drawn) [Example 127, 2-[1-(2-Amino-pyrimidin-4-yl)-ethylamino]-N-(4,4-dimethyl-1,2,3,4-tetrahydro-isoquinolin-7-yl)-benzamide]: less than 100 nM; `CNc1nccc([C@@H](C)Nc2ccccc2C(=O)Nc2ccc3c(c2)N(C(C)=O)CC32CC2)n1` [Example 132, N-(1-Acetyl-1′,2′-dihydrospiro[cyclopropane-1,3′-[3H]indol]-6′-yl)-2-[[(1R)-1-[2-(methylamino)-4-pyrimidinyl]ethyl]amino]-benzamide]: less than 1000 nM; `CC(=O)N1CC(C)(C)c2ccc(NC(=O)c3ccccc3NCc3cc[n+]([O-])cc3)cc21` [Example 10, N-(1-Acetyl-3,3-dimthyl-2,3-dihydro-1H-indol-6-yl)-2-[(1-oxy-pyridin-4-ylmethyl)-amino]-benzamide]: less than 1000 nM.
As for `CC(=O)N1Cc2cc(NC(=O)c3ccccc3NCc3ccnc4ccccc34)ccc2C(C)(C)C1` [Example 13, N-(2-Acetyl-4,4-dimthyl-1,2,3,4-tetrahydro-isoquinolin-7-yl)-2-[(quinolin-4-ylmethyl)-amino]-benzamide], the figure is less than 1000 nM.
Next, `CC1(C)CNCc2cc(NC(=O)c3ccccc3NCc3c[nH]c4ncccc34)ccc21` [Example 113, N-(4,4-Dimethyl-1,2,3,4-tetrahydro-isoquinolin-7-yl)-2-[(1H-pyrrolo [2,3-b]pyridin-3-ylmethyl)-amino]-benzamide]: less than 1000 nM; `CN1CCN(C(=O)N2CC(C)(C)c3ccc(NC(=O)c4ccccc4NCc4ccc(F)cc4)cc32)CC1` [Example 8, N-[3,3-Dimethyl-1-(4-methyl-piperazine-1-carbonyl)-2,3-dihydro-1H-indol-6-yl]-2-(4-fluoro-benzylamino)-benzamide]: less than 1000 nM.
Take `CC(=O)N1CC(C)(C)c2ccc(NC(=O)c3ccccc3NCc3ccc(F)cc3)cc21` [Example 3, N-(1-Acetyl-3,3-dimethyl-2,3-dihydro-1H-indol-6-yl)-2-(4-fluoro-benzylamino)-benzamide]: the IC50 was less than 1000 nM.
Next, `CC1(C)CNCc2cc(NC(=O)c3ccccc3NCc3cccc4nccnc34)ccc21` [Example 124, N-(4,4-Dimethyl-1,2,3,4-tetrahydro-isoquinolin-7-yl)-2-[(quinoxalin-5-ylmethyl)-amino]-benzamide]: less than 1000 nM.
